Biological target: T1, partially purified rat brain farnesyl protein transferase (FPT) (Rattus norvegicus, UniProt Q02293+Q04631)
T1 construct: partially purified rat brain farnesyl protein transferase (FPT); from tissue; host or cells: rat brain
Test: In vitro enzyme assay: inhibition of Ras-CVLS farnesylation by farnesyl protein transferase
Type: biochemical
Procedure: 1. In vitro enzyme assays: FPT IC50 (inhibition of farnesyl protein transferase, in vitro enzyme assay) are determined by the methods disclosed in WO/10515 or WO 95110516.

Row | IC50 [nM] | SMILES
1 | 3.2 | COc1cc(C)cc2c1C(C1CCN(C(=O)Cc3cc[n+]([O-])cc3)CC1)c1ncc(Br)cc1CC2 (racemic) [Example 3, (+,−)-4-(3-Bromo-10-methoxy-8-methyl-6,11-dihydro-5H-benzo[5,6]cyclohepta[1,2-b]pyridin-11-yl)-1-(4-pyridinylacetyl)piperidine N1-oxide]
2 | 140 | COc1cc(C)cc2c1C(C1CCN(C(=O)Cc3cc[n+]([O-])cc3)CC1)c1ncccc1CC2 (racemic) [Example 4, (+,−)-4-(6,11-dihydro-10-methoxy-8-methyl-5H-benzo[5,6]cyclohepta[1,2-b]pyridin-11-yl)-1-(4-pyridinylacetyl)piperidine N-1 oxide]
3 | 120 | Cc1cc(O)c2c(c1)CCc1cc(Br)cnc1C2C1CCN(C(=O)Cc2cc[n+]([O-])cc2)CC1 (racemic) [Example 9, (+,−)-4-(3-Bromo-10-hydroxy-8-methyl-5,6-dihydro-11H-benzo[5,6]cyclohepta[1,2-b]pyridin-11-yl)-1-(4-pyridinylacetyl)piperidine N1-oxide]
4 | 16 | COc1cc(C)cc2c1C(N1CCN(C(=O)Cc3cc[n+]([O-])cc3)CC1)c1ncc(Br)cc1CC2 (racemic) [Example 10, (+,−)-1-(3-Bromo-10-methoxy-8-methyl-6,11-dihydro-5H-benzo[5,6]cyclohepta[1,2-b]pyridin-1 1-yl)-4-(4-pyridinylacetyl)piperazine N4-oxide]
5 | 110 | Cc1cccc2c1CCc1cc(Br)cnc1C2N1CCN(C(=O)Cc2cc[n+]([O-])cc2)CC1 (racemic) [Example 14, (+,−)-1-(3-Bromo-7-methyl-6,11-dihydro-5H-benzo[5,6]cyclohepta[1,2-b]pyridin-11-yl)-4-(4-pyridinylacetyl)piperazine N4-oxide]
6 | 130 | Cc1ccc(C)c2c1CCc1cc(Br)cnc1C2N1CCN(C(=O)Cc2cc[n+]([O-])cc2)CC1 (racemic) [Example 15, (+,−)-1-(3-Bromo-7,10-dimethyl-6,11-dihydro-5H-benzo[5,6]cyclohepta[1,2-b]pyridin-11-yl)-4-(4-pyridinylacetyl)piperazine N4-oxide]
7 | 64 | Cc1ccc2c(c1)CCc1cc(Br)cnc1C2N1CCN(C(=O)Cc2cc[n+]([O-])cc2)CC1 (racemic) [Example 16, (+,−)-1-(3-Bromo-8-methyl-6,11-dihydro-5H-benzo[5,6]cyclohepta[1,2-b]pyridin-11-yl)-4-(4-pyridinylacetyl)piperazine N4-oxide]
8 | 290 | COc1ccc2c(c1)CCc1cc(Br)cnc1C2N1CCN(C(=O)Cc2cc[n+]([O-])cc2)CC1 (racemic) [Example 17, (+,−)-1-(3-Bromo-6,11-dihydro-8-methoxy-5H-benzo[5,6]cyclohepta[1 ,2-b]pyridin-11-yl)-4-(4-pyridinylacetyl)piperazine N4-oxide]
9 | 43 | Cc1cc(C)c2c(c1)CCc1cc(Br)cnc1C2N1CCN(C(=O)Cc2cc[n+]([O-])cc2)CC1 (racemic) [Example 18, (+,−)-1-(3-Bromo-6,11-dihydro-8,10-dimethyl-5H-benzo[5,6]cyclohepta[1,2-b]pyridin-11-yl)-4-(4-pyridinylacetyl)piperazine N4-oxide]
10 | 4.8 | Cc1cc(Br)c2c(c1)CCc1cc(Br)cnc1C2N1CCN(C(=O)Cc2cc[n+]([O-])cc2)CC1 (racemic) [Example 21]
11 | 9.9 | Cc1cc(Br)cc2c1C(N1CCN(C(=O)Cc3cc[n+]([O-])cc3)CC1)c1ncc(Br)cc1CC2 (racemic) [Example 22, (+,−)-1-(3,8-Dibromo-6,11-dihydro-10-methyl-5H-benzo[5,6]cyclohepta[1,2-b]pyridin-11-yl)-4-(4-pyridinylacetyl)piperazine N4-oxide]
12 | > 200 | COc1cc(C)cc2c1C(C1CCN(C(=O)Cc3cc[n+]([O-])cc3)CC1)c1ncc(C(C)(C)O)cc1CC2 (racemic) [Example 23, (+,−)-4-[6,11-dihydro-3-(1-hydroxy-1-methylethyl)-10-methoxy-8-methyl-5H-benzo[5,6]cyclohepta[1,2-b]pyridin-11-yl]-1-(4-pyridinylacetyl)piperidine N1-oxide]
13 | 58 | COc1cc(C)c2c(c1)CCc1cc(Br)cnc1C2N1CCN(C(=O)Cc2cc[n+]([O-])cc2)CC1 (racemic) [Example 26, (+,−)-1-(3-Bromo-8-methoxy-10-methyl-6,11-dihydro-5H-benzo[5,6]cyclohepta[1 ,2-b]pyridin-11-yl)-4-(4-pyridinylacetyl)piperzazine N4-oxide]
14 | > 200 | COc1cc(C)cc2c1C(C1CCN(C(=O)Cc3cc[n+]([O-])cc3)CC1)c1ncc(C3CC3)cc1CC2 (racemic) [Example 32]
15 | > 180 | COc1cc(C)cc2c1C(N1CCN(C(=O)Cc3cc[n+]([O-])cc3)CC1)c1ncc(Br)cc1CC2 (single isomer, unassigned; (+)) [Example 20, (+)-1-(3-Bromo-10-methoxy-8-methyl-6,11-dihydro-5H-benzo[5,6]cyclohepta[1,2-b]pyridin-11-yl)-4-(4-pyridinylacetyl)piperazine N4-oxide, (+) enantiomer]
16 | 3.6 | COc1cc(C)cc2c1C(C1CCN(C(=O)Cc3cc[n+]([O-])cc3)CC1)c1ncc(Br)cc1CC2 (single isomer, unassigned; (+)) [Example 24, (+)-4-(3-Bromo-10-methoxy-8-methyl-6,11-dihydro-5H-benzo[5,6]cyclohepta[1,2-b]pyridin-11-yl)-4-(4-pyridinylacetyl)piperidine N1-oxide, (+) enantiomer]
17 | 1.2 | Cc1cc(Br)c2c(c1)CCc1cc(Br)cnc1C2C1CCN(C(=O)Cc2cc[n+]([O-])cc2)CC1 (single isomer, unassigned; (+)) [Example 33, (+) 4-(3-Bromo-6,11-dihydro-10-bromo-8-methyl-5H-benzo[5,6]cyclohepta[1,2-b]pyridin-11-yl)-1-(4-pyridinylacetyl)piperidine N1 -Oxide]
18 | 10.8 | Cc1cc(Br)c2c(c1)CCc1cc(Br)cnc1C2(O)C1CCN(C(=O)Cc2cc[n+]([O-])cc2)CC1 (single isomer, unassigned; (+)) [Example 35, (+) 4-(3-Bromo-6,11-dihydro-11-hydroxy-10-bromo-8-methyl-5H-benzo[5,6]cyclohepta[1,2-b]pyridin-11-yl)-1-(4-pyridinylacetyl)piperidine N1-Oxide]
19 | 4.2 | COc1cc(C)cc2c1C(N1CCN(C(=O)Cc3cc[n+]([O-])cc3)CC1)c1ncc(Br)cc1CC2 (single isomer, unassigned; (-)) [Example 19, (−)-1-(3-Bromo-10-methoxy-8-methyl-6,11-dihydro-5H-benzo[5,6]cyclohepta[1,2-b]pyridin-11-yl)-4-(4-pyridinylacetyl)piperazine N4-oxide, (−) enantiomer]
20 | 220 | COc1cc(C)cc2c1C(C1CCN(C(=O)Cc3cc[n+]([O-])cc3)CC1)c1ncc(Br)cc1CC2 (single isomer, unassigned; (-)) [Example 25, (−)-4-(3-Bromo-10-methoxy-8-methyl-6,11-dihydro-5H-benzo[5,6]cyclohepta[1,2-b]pyridin-11-yl)-4-(4-pyridinylacetyl)piperidine N1-oxide, (−) enantiomer]
21 | > 16 | Cc1cc(Br)c2c(c1)CCc1cc(Br)cnc1C2C1CCN(C(=O)Cc2cc[n+]([O-])cc2)CC1 (single isomer, unassigned; (-)) [Example 34, (−) 4-(3-Bromo-6,11-dihydro-10-bromo-8-methyl-5H-benzo[5,6]cyclohepta[1,2-b]pyridin-11-yl)-1-(4-pyridinylacetyl)piperidine N1-Oxide]
22 | 5.4 | Cc1cc(Br)c2c(c1)CCc1cc(Br)cnc1C2(O)C1CCN(C(=O)Cc2cc[n+]([O-])cc2)CC1 (single isomer, unassigned; (-)) [Example 36, (−) 4-(3-Bromo-6,11-dihydro-11-hydroxy-10-bromo-8-methyl-5H-benzo[5,6]cyclohepta[1,2-b]pyridin-11-yl)-1-(4-pyridinylacetyl)piperidine N1-Oxide]
23 | 67 | COc1cc2c(c(OC)c1)C(N1CCN(C(=O)Cc3cc[n+]([O-])cc3)CC1)c1ncc(Br)cc1CC2 (stereo not shown) [Example 1, 1-(3-Bromo-6,11-dihydro-8,10-dimethoxy-5H-benzo[5,6]cyclohepta[1,2-b]pyridin-11-yl)-4-(4-pyridinylacetyl)piperazine N4-oxide]
24 | 34 | COc1cc(C)cc2c1C(C1CCN(C(=O)Cc3cc[n+]([O-])cc3)CC1)c1ncc(C)cc1CC2 (stereo not shown) [Example 2, 4-(6,11-dihydro-10-methoxy-3,8-dimethyl-5H-benzo[5,6]cyclohepta[1,2-b]pyridin-11-yl)-1-(4-pyridinylacetyl)piperidine N1-15 oxide]
25 | > 200 | COc1cc(C)c(Cl)c2c1C(=C1CCN(C(=O)Cc3cc[n+]([O-])cc3)CC1)c1ncccc1CC2 [Example 5, (+,−)-4-(7-Chloro-5,6-dihydro-8-methyl-10-methoxy-11H-benzo[5,6]cyclohepta[1,2-b]pyridin-11-ylidene)-1-(4-pyridinylacetyl)piperidine N1-oxide]
26 | 45 | Cc1cc(O)c2c(c1)CCc1cc(Br)cnc1C2=C1CCN(C(=O)Cc2cc[n+]([O-])cc2)CC1 [Example 6, (+,−)-4-(3-Bromo-10-hydroxy-8-methyl--5,6-dihydro-11H-benzo[5,6]cyclohepta[1,2-b]pyridin-11-ylidene)-1-(4-pyridinylacetyl)piperidine N1-oxide]
27 | 60 | COc1cc(C)cc2c1C(=C1CCN(C(=O)Cc3cc[n+]([O-])cc3)CC1)c1ncc(C)cc1CC2 [Example 7, 4-(5,6-dihydro-10-methoxy-3,8-dimethyl-11H-benzo[5,6]cyclohepta[1,2-b]pyridin-11-ylidene)-1-(4-pyridinylacetyl)piperidine N1-oxide]
28 | 30 | COc1cc(C)cc2c1C(=C1CCN(C(=O)Cc3cc[n+]([O-])cc3)CC1)c1ncc(Br)cc1CC2 [Example 8, (+,−)-4-(3-bromo-10-methoxy-8-methyl-5,6-dihydro-11H-benzo[5,6]cyclohepta[1,2-b]pyridin-11-ylidene)-1-(4-pyridinylacetyl)piperidine N1-oxide]
